According to patent publication US12595253B2, “Benzamides of pyrazolylamino-pyrimidinyl derivatives, and compositions and methods thereof” (LYNK PHARMACEUTICALS CO. LTD., priority 2019, dated 2026):

Columns and labels:
[1] = Liver microsomes study, Phase I stability (RLM); format: in vitro ADME, rat; conditions: pH 7.4; rat liver microsomes 0.5 mg/mL, 1 μM test article; read-out: RLM Clint
Protocol: (§1) Commercially available liver microsomes (MsLM vendor: XENOTECH; RLM, DLM, MkL, HLM vendor: Corning) were used for study the Phase I stability of test articles. […] The reaction was initiated by addition of 80 μL of the NADPH regenerating system to 320 µL of each incubation mixture per time point. […] The 0-minute samples were prepared by addition of an 80 μL aliquot of each incubation mixture to 400 μL quench reagent to precipitate proteins. And then a 20 μL aliquot of the NADPH regenerating system was added. At 10, 30, and 90 minutes, the reaction will be stopped by the addition of cold acetonitrile solution containing tolbutamide and propanolol served as internal standard. The samples taken at all time points were centrifuged at 4000×g for 15 minutes. 80 μL of supernatant are taken into 96-well assay plates pre-added with 160 μL ultrapure water, and then analyzed by LC/MS/MS(Shimadzu LC30AD & API4000/API5000)). Concentrations of test articles, control compounds in the samples were determined by using LC/MS/MS) method. Plotting of the chromatograms and peak area integrations are carried out by Analyst (AB Sciex).
(§2) In the determination of the in vitro elimination constant, ke, of the control compounds, the analyte/internal standard peak area ratios will be converted to percentage remaining (% Remaining) with the following equation: […]
(§3) The slope was measured by the natural logarithm of the percentage of the residual compound and time, T½ and CLint were calculated according to the following formulas, V/M was equal to the 1/concentration of protein.

TYK2 = biological target: T1, TYK2 (Homo sapiens, UniProt P29597); test: TYK2 microfluidic kinase assay (Caliper EZ Reader II, FAM labeled peptide substrate); format: biochemical
T1 construct: purchased Carna Biosciences
How it was run: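 3-fold series, top 5 μM, 1% DMSO; 10 min preincubation with enzyme, RT. Buffer 50 mM HEPES/10 mM MgCl2/2 mM DTT/0.01% Brij35. Run times JAK1 120 min, JAK2 20, JAK2V617F 30, TYK2 10. Stopped with 50 mM EDTA; IC50 from % inhibition vs no-enzyme and DMSO controls.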

[2] = Liver microsomes study, Phase I stability (HLM); format: in vitro ADME, human; conditions: pH 7.4; human liver microsomes 0.5 mg/mL, 1 μM test article; read-out: HLM Clint
Protocol: as §1, §2, §3

JAK2 = biological target: T2, JAK2 (Homo sapiens, UniProt O60674); test: JAK2 microfluidic kinase assay (Caliper EZ Reader II, FAM labeled peptide substrate); format: biochemical
T2 construct: purchased Carna Biosciences
How it was run: (§4)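 Microfluidic mobility-shift assay on Caliper EZ Reader II, FAM-labelled peptide phosphorylation, in 50 mM HEPES, 0.01% Brij35, 10 mM MgCl2, 2 mM DTT, 1% DMSO; enzyme conditions set for 10% substrate conversion.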

JAK2V617F = biological target: T3, JAK2V617F (Homo sapiens, UniProt O60674, V617F); test: JAK2V617F microfluidic kinase assay (Caliper EZ Reader II, FAM labeled peptide substrate); format: biochemical; conditions: JAK2V617F 2.5 nM, 1 mM ATP
T3 construct: purchased Carna Biosciences
How it was run: as §4

JAK1 = biological target: T4, JAK1 (Homo sapiens, UniProt P23458); test: JAK1 microfluidic kinase assay (Caliper EZ Reader II, FAM labeled peptide substrate); format: biochemical; conditions: IC50 JAK1 (5 nM) (1 m MATP), JAK1 5 nM, 1 mM ATP
T4 construct: purchased Carna Biosciences
How it was run: as §4

[3] = IC50 TYK2 (10 nM) (Km ATP), TYK2 10 nM, Km ATP
[4] = IC50 JAK2 ([…]) (1 mM ATP), 1 mM ATP
[5] = IC50 TYK2 ([…]) (1 mM ATP), TYK2 […], 1 mM ATP
[6] = IC50 JAK2 ([…]) (Km ATP), Km ATP

T3 sequence (O60674 whole entry V617F): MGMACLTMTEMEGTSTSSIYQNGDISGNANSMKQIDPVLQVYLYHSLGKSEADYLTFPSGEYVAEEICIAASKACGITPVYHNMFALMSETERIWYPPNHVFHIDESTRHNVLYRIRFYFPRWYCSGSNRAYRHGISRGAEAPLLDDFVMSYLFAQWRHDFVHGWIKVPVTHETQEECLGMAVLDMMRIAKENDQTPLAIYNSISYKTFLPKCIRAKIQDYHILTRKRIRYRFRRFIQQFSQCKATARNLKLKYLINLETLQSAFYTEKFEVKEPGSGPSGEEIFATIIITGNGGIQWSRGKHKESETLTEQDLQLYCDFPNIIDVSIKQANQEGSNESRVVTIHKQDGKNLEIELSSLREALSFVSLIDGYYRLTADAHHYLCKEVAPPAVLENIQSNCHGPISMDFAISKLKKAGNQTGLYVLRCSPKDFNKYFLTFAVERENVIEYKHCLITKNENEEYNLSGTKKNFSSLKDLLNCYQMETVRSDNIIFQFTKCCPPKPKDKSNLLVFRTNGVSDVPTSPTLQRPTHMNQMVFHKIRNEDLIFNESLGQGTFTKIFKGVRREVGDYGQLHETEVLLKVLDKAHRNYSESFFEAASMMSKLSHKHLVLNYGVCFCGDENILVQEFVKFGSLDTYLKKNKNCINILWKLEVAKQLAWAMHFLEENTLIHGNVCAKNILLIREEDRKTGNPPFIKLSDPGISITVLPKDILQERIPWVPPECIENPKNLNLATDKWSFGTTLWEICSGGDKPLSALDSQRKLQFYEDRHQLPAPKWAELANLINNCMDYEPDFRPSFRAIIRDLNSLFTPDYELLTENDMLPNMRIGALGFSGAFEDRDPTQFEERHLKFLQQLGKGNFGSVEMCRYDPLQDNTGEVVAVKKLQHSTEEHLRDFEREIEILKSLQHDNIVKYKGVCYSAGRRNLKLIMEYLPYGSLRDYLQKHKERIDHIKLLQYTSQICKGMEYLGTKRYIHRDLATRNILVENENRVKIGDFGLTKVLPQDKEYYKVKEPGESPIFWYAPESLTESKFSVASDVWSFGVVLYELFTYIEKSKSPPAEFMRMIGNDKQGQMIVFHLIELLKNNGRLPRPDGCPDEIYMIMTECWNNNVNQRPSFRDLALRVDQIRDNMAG
T4 sequence (P23458 whole entry): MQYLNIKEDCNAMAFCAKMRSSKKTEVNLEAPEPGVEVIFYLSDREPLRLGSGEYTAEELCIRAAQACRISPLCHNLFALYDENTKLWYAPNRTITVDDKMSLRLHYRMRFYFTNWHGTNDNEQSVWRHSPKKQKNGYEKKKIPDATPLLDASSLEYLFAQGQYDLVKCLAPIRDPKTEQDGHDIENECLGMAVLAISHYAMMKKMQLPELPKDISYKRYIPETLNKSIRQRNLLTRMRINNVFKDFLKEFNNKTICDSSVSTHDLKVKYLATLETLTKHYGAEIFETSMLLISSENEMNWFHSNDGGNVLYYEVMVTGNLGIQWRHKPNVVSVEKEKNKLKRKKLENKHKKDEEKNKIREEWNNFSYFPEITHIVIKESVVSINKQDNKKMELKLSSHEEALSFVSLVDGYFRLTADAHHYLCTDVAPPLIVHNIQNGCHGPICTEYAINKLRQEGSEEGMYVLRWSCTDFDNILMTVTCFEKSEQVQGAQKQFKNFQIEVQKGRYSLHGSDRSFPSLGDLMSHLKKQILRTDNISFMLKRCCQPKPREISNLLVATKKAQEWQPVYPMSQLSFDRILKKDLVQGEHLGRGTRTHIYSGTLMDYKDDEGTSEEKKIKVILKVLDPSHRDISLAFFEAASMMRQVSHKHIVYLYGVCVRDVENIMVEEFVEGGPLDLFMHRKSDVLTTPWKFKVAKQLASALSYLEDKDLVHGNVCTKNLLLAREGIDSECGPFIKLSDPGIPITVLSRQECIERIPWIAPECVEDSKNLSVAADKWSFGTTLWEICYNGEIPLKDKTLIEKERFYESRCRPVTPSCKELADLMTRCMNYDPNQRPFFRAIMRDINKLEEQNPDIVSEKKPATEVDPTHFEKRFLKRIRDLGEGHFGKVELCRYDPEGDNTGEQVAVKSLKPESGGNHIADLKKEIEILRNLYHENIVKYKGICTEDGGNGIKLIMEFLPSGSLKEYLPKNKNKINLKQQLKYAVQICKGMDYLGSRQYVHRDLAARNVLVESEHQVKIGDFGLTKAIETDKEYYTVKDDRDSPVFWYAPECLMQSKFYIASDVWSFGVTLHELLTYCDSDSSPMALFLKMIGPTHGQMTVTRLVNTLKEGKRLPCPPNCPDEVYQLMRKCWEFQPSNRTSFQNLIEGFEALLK
T2 sequence (O60674 whole entry): as the sequence (O60674 whole entry V617F) above, with F617V counted along it
T1 sequence (P29597 whole entry): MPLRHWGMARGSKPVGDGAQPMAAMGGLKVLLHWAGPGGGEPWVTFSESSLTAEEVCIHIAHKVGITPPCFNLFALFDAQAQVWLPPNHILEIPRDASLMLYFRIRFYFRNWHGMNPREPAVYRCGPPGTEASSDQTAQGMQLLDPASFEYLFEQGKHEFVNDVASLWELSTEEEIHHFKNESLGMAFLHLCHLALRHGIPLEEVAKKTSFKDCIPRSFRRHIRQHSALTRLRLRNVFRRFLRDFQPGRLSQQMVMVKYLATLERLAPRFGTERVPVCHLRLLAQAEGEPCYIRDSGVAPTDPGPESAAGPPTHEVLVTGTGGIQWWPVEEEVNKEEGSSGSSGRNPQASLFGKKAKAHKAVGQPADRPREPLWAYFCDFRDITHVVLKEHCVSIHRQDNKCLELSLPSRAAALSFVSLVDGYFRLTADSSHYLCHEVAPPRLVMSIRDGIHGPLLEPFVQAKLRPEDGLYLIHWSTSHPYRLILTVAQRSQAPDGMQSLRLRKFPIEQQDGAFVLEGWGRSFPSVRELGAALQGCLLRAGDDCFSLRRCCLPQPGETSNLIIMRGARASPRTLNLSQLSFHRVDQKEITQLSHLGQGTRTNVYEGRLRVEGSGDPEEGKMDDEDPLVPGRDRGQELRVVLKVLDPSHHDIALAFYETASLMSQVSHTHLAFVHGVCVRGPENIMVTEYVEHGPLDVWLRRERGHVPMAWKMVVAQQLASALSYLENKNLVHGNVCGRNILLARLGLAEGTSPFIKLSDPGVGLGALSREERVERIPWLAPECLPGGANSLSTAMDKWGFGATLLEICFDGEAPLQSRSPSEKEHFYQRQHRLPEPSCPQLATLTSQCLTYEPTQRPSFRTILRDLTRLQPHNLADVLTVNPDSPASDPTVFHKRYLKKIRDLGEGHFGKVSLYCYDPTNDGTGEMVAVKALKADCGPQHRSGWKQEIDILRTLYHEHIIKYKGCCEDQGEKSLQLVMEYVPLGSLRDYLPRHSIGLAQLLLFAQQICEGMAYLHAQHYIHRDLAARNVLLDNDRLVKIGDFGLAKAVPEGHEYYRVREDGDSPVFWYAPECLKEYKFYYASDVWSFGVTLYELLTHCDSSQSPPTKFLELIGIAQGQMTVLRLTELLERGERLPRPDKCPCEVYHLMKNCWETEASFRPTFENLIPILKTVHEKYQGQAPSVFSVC

SMILES | microsomal CLint at 1 μM [1] [µL/min/mg] | IC50 (TYK2; [3]) [nM] | microsomal CLint at 1 μM [2] [µL/min/mg] | IC50 (JAK2; [4]) [nM] | IC50 (JAK2V617F) [nM] | IC50 (JAK1) [nM] | IC50 (TYK2; [5]) [nM] | IC50 (JAK2; [6]) [nM]
Cc1cnc(Nc2cnn(C3CCN(C(=O)C4CC4)CC3)c2)nc1-c1ccc(C(=O)N[C@@H](C)C#N)cc1 [Example 163, (S)—N-(1-cyanoethyl)-4-(2-((1-(1-(cyclopropanecarbonyl)piperidin-4-yl)-1H-pyrazol-4-yl)amino)-5-methylpyrimidin-4-yl)benzamide] | 54.9 | 12 | 68.4 | 0.69 | – | – | – | –
CO[C@H]1CC[C@H](n2cc(Nc3ncc(C)c(-c4ccc(C(=O)N[C@@H](C)C#N)cc4)n3)cn2)CC1 [Example 91, N—((S)-1-cyanoethyl)-4-(2-((1-(trans-4-methoxycyclohexyl)-1H-pyrazol-4-yl)amino)-5-methylpyrimidin-4-yl)benzamide] | 80.1 | – | 6.7 | 0.35 | 15.8 | 12 | – | –
Cc1cnc(Nc2cnn(C3CCN(C(=O)C4CC4)CC3)c2)nc1-c1ccc(C(=O)NCC2(C#N)CC2)cc1 [Example 158, N-((1-cyanocyclopropyl)methyl)-4-(2-((1-(1-(cyclopropanecarbonyl)piperidin-4-yl)-1H-pyrazol-4-yl)amino)-5-methylpyrimidin-4-yl)benzamide] | 124 | – | 142 | 0.88 | 28.2 | 23.9 | – | –
Cc1cnc(Nc2cnn(C(C)C(F)(F)F)c2)nc1-c1ccc(C(=O)N[C@@H](C)C#N)cc1 (stereo partly drawn) [Example 166, N—((S)-1-Cyanoethyl)-4-(5-methyl-2-((1-(1,1,1-trifluoropropan-2-yl)-1H-pyrazol-4-yl)amino)pyrimidin-4-yl)benzamide] | 161 | – | 7.27 | 15.6 | – | 10.4 | 22.1 | –
CC[C@@H](C#N)NC(=O)c1ccc(-c2nc(Nc3cnn(C4CC(C)(C)OC(C)(C)C4)c3)ncc2Cl)cc1 [Example 182, (S)-4-(5-Chloro-2-((1-(2,2,6,6-tetramethyltetrahydro-2H-pyran-4-yl)-1H-pyrazol-4-yl)amino)pyrimidin-4-yl)-N-(1-cyanopropyl)benzamide] | 51.9 | – | 180 | < 0.25 | – | 8.65 | 0.58 | –
Cc1cnc(Nc2cnn(C)c2)nc1-c1ccc(C(=O)N[C@H](C)C#N)cc1 [Example 101, (R)—N-(1-cyanoethyl)-4-(5-methyl-2-((1-methyl-1H-pyrazol-4-yl)amino)pyrimidin-4-yl)benzamide] | 19.2 | – | 2 | – | 362 | 75.1 | – | 4.5
Cc1cnc(Nc2cnn(C(C)C(F)(F)F)c2)nc1-c1ccc(C(=O)NCC#N)cc1 (stereo not shown) [Example 112, N-(cyanomethyl)-4-(5-methyl-2-((1-(1,1,1-trifluoropropan-2-yl)-1H-pyrazol-4-yl)amino)pyrimidin-4-yl)benzamide] | 76.4 | – | 49.1 | 79 | 119 | 6.43 | – | –
Cc1cnc(Nc2cnn(C3CCN(C)CC3)c2)nc1-c1ccc(C(=O)N[C@H](C#N)C2CC2)cc1 [Example 180, (S)—N-(cyano(cyclopropyl)methyl)-4-(5-methyl-2-((1-(1-methylpiperidin-4-yl)-1H-pyrazol-4-yl)amino)pyrimidin-4-yl)benzamide] | 91.8 | – | 23.1 | 0.59 | – | 0.85 | 1.04 | –
Cc1cnc(Nc2cnn(C3CC3)c2)nc1-c1ccc(C(=O)NC2(C#N)CC2)cc1 [Example 160, N-(1-cyanocyclopropyl)-4-(2-((1-cyclopropyl-1H-pyrazol-4-yl)amino)-5-methylpyrimidin-4-yl)benzamide] | 110 | 17.2 | 16.9 | 70.4 | – | – | – | 0.73
Cc1cnc(Nc2cnn(C3CC(C#N)C3)c2)nc1-c1ccc(C(=O)NCC#N)cc1 (stereo not shown) [Example 106, 4-(2-((1-(3-Cyanocyclobutyl)-1H-pyrazol-4-yl)amino)-5-methylpyrimidin-4-yl)-N-(cyanomethyl)benzamide] | 38.4 | – | 11.1 | 2.17 | 23.7 | 14.9 | – | 0.25
Cc1cnc(Nc2cnn(C3CCOCC3)c2)nc1-c1ccc(C(=O)NCC2(C#N)CC2)cc1 [Example 37, N-((1-cyanocyclopropyl)methyl)-4-(5-methyl-2-((1-(tetrahydro-2H-pyran-4-yl)-1H-pyrazol-4-yl)amino)pyrimidin-4-yl)benzamide] | 40.7 | 28.8 | 20.7 | 50.5 | – | – | – | 0.54
C[C@H](C#N)NC(=O)c1ccc(-c2nc(Nc3cnn(C)c3)ncc2Cl)cc1 [Example 97, (R)-4-(5-Chloro-2-((1-methyl-1H-pyrazol-4-yl)amino)pyrimidin-4-yl)-N-(1-cyanoethyl)benzamide] | 16.9 | – | 2.39 | – | 147 | 11.3 | 218 | –
Cc1cnc(Nc2cnn(C3CC3)c2)nc1-c1ccc(C(=O)N2CC(C#N)C2)c(F)c1 [Example 140, 1-(4-(2-((1-Cyclopropyl-1H-pyrazol-4-yl)amino)-5-methylpyrimidin-4-yl)-2-fluorobenzoyl)azetidine-3-carbonitrile] | 628 | – | 9.1 | 155 | 341 | 257 | – | 6.4
Cc1cnc(Nc2cnn(C3CCN(C)CC3)c2)nc1-c1ccc(C(=O)N[C@H](C#N)C(C)C)cc1 [Example 174, (S)—N-(1-cyano-2-methylpropyl)-4-(5-methyl-2-((1-(1-methylpiperidin-4-yl)-1H-pyrazol-4-yl)amino)pyrimidin-4-yl)benzamide] | 115 | – | 45.7 | 0.86 | – | 1.28 | 1.33 | –
Cc1cnc(Nc2cnn(C3C[C@@H](C)O[C@@H](C)C3)c2)nc1-c1ccc(C(=O)N[C@@H](C)C#N)cc1 (stereo partly drawn) [Example 73, N—((S)-1-cyanoethyl)-4-(2-((1-(cis-2,6-dimethyltetrahydro-2H-pyran-4-yl)-1H-pyrazol-4-yl)amino)-5-methylpyrimidin-4-yl)benzamide] | 259 | – | 268 | – | 8.15 | 34.4 | 74.4 | –
Cc1cnc(Nc2cnn(C3CCN(C(=O)[C@H]4CC4(C)C)CC3)c2)nc1-c1ccc(C(=O)NCC#N)cc1 [Example 143, (S)—N-(cyanomethyl)-4-(2-((1-(1-(2,2-dimethylcyclopropanecarbonyl)piperidin-4-yl)-1H-pyrazol-4-yl)amino)-5-methylpyrimidin-4-yl)benzamide] | 599 | – | 1430 | 0.4 | 17.3 | 15.4 | – | –
CC(C)(C#N)CNC(=O)c1ccc(-c2nc(Nc3cnn(C4CC4)c3)ncc2Cl)cc1 [Example 123, 4-(5-Chloro-2-((1-cyclopropyl-1H-pyrazol-4-yl)amino)pyrimidin-4-yl)-N-(2-cyano-2-methylpropyl)benzamide] | 77.3 | – | 35.2 | 13 | 56 | 19 | – | –
COCCNC(=O)c1ccc(-c2nc(Nc3cnn(C)c3)ncc2C)cc1 [Example 6, N-(2-Methoxyethyl)-4-(5-methyl-2-((1-methyl-1H-pyrazol-4-yl)amino)pyrimidin-4-yl)benzamide] | 2.58 | – | 6.6 | – | 669 | 75.4 | – | 8.4
